The text below walks through data of patent publication US12071431B2, “Pyridin-sulfonamide compounds for the treatment of conditions related to interleukin 1 beta” (ALLINKY BIOPHARMA, priority 2018, dated 2024).

For data set [1], the system named is IL-1β. Briefly: In vitro inhibition of IL-1β in human primary macrophages challenged with LPS (ELISA). Format: cell-based. Conditions: Primary macrophage, 2 hours compound pre-treatment, 100 ng/mL LPS, 16 hours, read-out: IC50 (IL-Iβ inhibition). How it is done:
Example 12—In Vitro Inhibition of IL-1β in Human Primary Macrophages Challenged with LPS
5 mL of RPMI media without serum (1:1) was added to a sample of 5 mL of human whole blood in EDTA or sodium citrate and mixed well by inversion. 3 mL of Histopaque-1077 was added to a 15 mL conical centrifuge tube and brought to room temperature. Using a transfer pipette, 10 mL of the blood-RPMI mixture was carefully layered onto the Histopaque-1077 and was centrifuged at 400×g for exactly 30 minutes at room temperature.
After centrifugation, a pasteur pipette was used to aspirate the upper layer to within 0.5 cm of the opaque interface containing the mononuclear cells. The upper layer was discarded. With a Pasteur pipette, the opaque interface was carefully transferred to a clean conical centrifuge tube. 5 mL RPMI was added to the tube and mixed by inversion, followed by centrifugation at 250×g for exactly 10 minutes. The supernatant was aspirated and discarded.
The leukocyte pellet was re-suspended with 5 mL RPMI and mixed gently with a Pasteur pipette, followed by centrifugation at 250×g for exactly 10 minutes. The pellet was washed 3× with PBS and re-suspended in RPMI medium.
2×10^5 PBMCs at a total volume of 200 μL/well were plated into a 96-well plate and incubated for 4 hrs at 37° C. in a CO2 incubator to allow the monocytes to settle, leaving the lymphocytes in suspension. Following incubation, 100 μL were aspirated out of each well to ensure removal of the lymphocyte population.
The monocytes were differentiated to macrophages by addition of 200 ng/mL of recombinant human GM-CSF (4 mg/mL stock) and incubated at 37° C./5% CO2 for 6 days. The medium was changed every two days by removing half the volume of medium in the well and re-supplementing with fresh RPMI complete medium and recombinant human GM-CSF.
Following differentiation, the cells were treated in duplicates with a compound according to the invention in a total volume of 50 μL, maintaining a final DMSO percentile of 0.5%. The plate was transferred to an incubator maintained at 37° C./5% CO2 for 2 hours. The cells were stimulated with 100 ng/mL of LPS (4×) (1 mg/mL stock) in a total volume of 50 μL.
The plate was transferred to an incubator maintained at 37° C./5% CO2 for 16 hours.
• 1. Each well from a pre-coated ELISA plate was aspirated and washed with wash buffer (0.05% Tween 20 in PBS; pH 7.2-7.4) by filling each well with wash buffer (300 μL). The process was repeated two times for a total of three washes. The liquid was removed completely at each step. After the last wash, any remaining wash buffer was removed. • 2. Plates were blocked by adding 300 μL of block buffer (1% BSA in PBS) to each well and incubated at room temperature for 1 hour. • 3. The aspiration/wash as in step 1 was repeated. • 4. 100 μL of sample or standard prepared in reagent diluent (0.1% BSA, 0.05% Tween 20 in PBS pH7.2-7.4) was added. The wells were covered with an adhesive strip and incubated for 2 hours at room temperature. • 5. The aspiration/wash as in step 1 was repeated. • 6. 100 μL of detection antibody, diluted in reagent diluent, was added to each well. The wells were covered with a new adhesive strip and incubated for 2 hours at room temperature. • 7. The aspiration/wash as in step 1 was repeated. • 8. 100 μL of the working dilution (1:200 from the stock) and streptavidin-HRP was added to each well. The plate was covered and incubated for 20 minutes at room temperature. • 9. 100 μL of substrate solution (1:1 mixture of H2O2 and tetramethylbenzidine) was added to each well and incubated for 20 minutes at room temperature. • 10.50 μL of stop solution (2N H2SO4) was added to each well. The plate was tapped gently to ensure thorough mixing. • 11. The optical density of each well was determined immediately using a microplate reader (Spectramax Plus) set to 450 nm. Cytokine Viability Assessment […]
(In an ELISA, binding on a coated surface is turned into a signal by an enzyme label.)

Data set [2] deals with human primary macrophages. The data set can be described thus: Cell viability assessment (CellTiter-Glo) in the macrophage assay plates. Conditions: CellTiter-Glo luminescent assay. Also noted: concentration or dose not given beside the values. In kind it is cell-based. How it is done:
2×10^5 PBMCs at a total volume of 200 μL/well were plated into a 96-well plate and incubated for 4 hrs at 37° C. in a CO2 incubator to allow the monocytes to settle, leaving the lymphocytes in suspension. Following incubation, 100 μL were aspirated out of each well to ensure removal of the lymphocyte population. The monocytes were differentiated to macrophages by addition of 200 ng/mL of recombinant human GM-CSF (4 mg/mL stock) and incubated at 37° C./5% CO2 for 6 days. The medium was changed every two days by removing half the volume of medium in the well and re-supplementing with fresh RPMI complete medium and recombinant human GM-CSF. Following differentiation, the cells were treated in duplicates with a compound according to the invention in a total volume of 50 μL, maintaining a final DMSO percentile of 0.5%. The plate was transferred to an incubator maintained at 37° C./5% CO2 for 2 hours. The cells were stimulated with 100 ng/mL of LPS (4×) (1 mg/mL stock) in a total volume of 50 μL. The plate was transferred to an incubator maintained at 37° C./5% CO2 for 16 hours. 100 μl/well volume of CellTiter-Glo® luminescent reagent was added to the assay plates and incubated at room temperature for 30 mins on a plate shaker. Following incubation, the luminescent signal of each well was determined using a microplate reader (Perkin Elmer ENVISION 2104). Cytotoxicity of the test compounds was determined utilizing the following formula: % Cytotoxicity=100−(100*(Average Test Compound Counts−Average Negative Control Counts)/(Average Positive Control Counts−Average Negative Control Counts)) All of the “Counts” stated in this formula are derived from “luminescent signal” determined as described for the cytokine viability assessment.
(ATP-based viability assays read luminescence as a measure of living cells.)

Data set [3] has as its system Non-Alcoholic Steatohepatitis (NASH) in male C57BL/6 mice. Briefly: Treatment of non-alcoholic steatohepatitis (NASH) in male C57BL/6 mice (streptozotocin + high-fat diet). Format: in vivo. The following applies: for hepatomegaly and liver to body weight ratio: 28 days of treatment, FIG. 3. How it is done:
Example 15: Effect of Compound 5 and 7 in the Treatment of Non-Alcoholic Steatohepatitis (NASH) in Male C57BL/6 Mice
Timed pregnant mice (n=30) were selected for the study. The delivered pups were subcutaneously injected on the post-natal day 2 (PND-2) with 200 μg of Streptozotocin and were allowed to remain with the mother until they reached the weanling age. After weanling, the male pups were selected and fed with 60% kcal fat diet (Research Diet-D12492) for the next 2 weeks. All the animals were observed twice daily for clinical signs.
Mice were dosed with vehicle, test compounds and reference compound (elafibranor) twice daily morning (9.00 AM) and evening before the start of dark cycle (6:00 PM) from day 0 to 28.
Animal body weight measurements were made daily for the complete duration of the experiment.
Animals were dosed for 28 days (from week 6 to 10) with the test and reference compounds.
Blood glucose was estimated before the treatment start and on the termination day 28. Serum ALT and AST levels were measured from the plasma before the treatment start and on day 28.
Histopathology analysis including H&E staining, Masson's trichrome staining and Oil-Red-O (ORO) staining was performed for the liver tissues.
All the H&E stained tissue sections were examined by light microscopy. As per the below grading system (Kleiner et al., 2005) in 200× objective lens, NAFLD scoring was done for steatosis, lobular inflammation and hepatic ballooning.
All the Masson's trichrome stained tissue sections were examined by light microscopy in 100× objective lens. Randomly selected five fields (approx 684.85 μm×917.11 m per field) from each liver were subjected to collagen proportion area measurement by using Image Pro Premier 9.1 software. The percentage of collagen proportion area was calculated by dividing collagen tissue area by total tissue area.
All the Oil-Red-O stained tissue sections were examined by light microscopy in 100× objective lens. Randomly selected five fields (approximately 688.33 μm×922.45 μm per field) from each liver were subjected to measure stained area by using Image Pro Premier 9.1 software. The percentage of stained area was calculated by dividing lipid stained tissue area by total tissue area.

For data set [4], the system named is Bleomycin-induced IPF. The data set can be described thus: Treatment of bleomycin-induced IPF in mice. In kind it is in vivo. The text has this: Example 16: Effect of Compound 7 in the Treatment of Bleomycin-Induced IPF Timed pregnant mice (n=30) were selected for the study. The delivered pups were subcutaneously injected on the post-natal day 2 (PND-2) with 1.5 U/kg of Bleomycin (intra-tracheal) and were allowed to remain with the mother until they reached the weanling age. After weanling, the male pups were selected and fed with 60% kcal fat diet (Research Diet-D12492) for the next week. All the animals were observed twice daily for clinical signs. Mice were orally dosed with vehicle, test compounds and reference compound (Pirfenidone) twice daily morning (9.00 AM) and evening before the start of dark cycle (6:00 PM) from day 0 to 14. Animal body weight measurements were made daily for the complete duration of the experiment. Animals were dosed for 14 days with the test and reference compounds. Lung hydroxyproline level was estimated before the treatment start and on the termination day 14. Total cell count and differential leukocyte count in BALF were measured before the treatment start and on […]. Histopathology analysis in the form of H&E Ashcroft score was performed for the lung tissues. All the H&E stained tissue sections were examined by light microscopy. As per the below grading system (Kleiner et al., 2005) in 200× objective lens, IPF scoring was carried out. Collagen Proportion Area (% CPA) Measurement: Masson's Trichrome Staining All the Masson's trichrome stained tissue sections were examined by light microscopy in 100× objective lens. Randomly selected five fields (approx 684.85 μm×917.11m per field) from each lung were subjected to collagen proportion area measurement by using Image Pro Premier 9.1 software. The percentage of collagen proportion area was calculated by dividing collagen tissue area by total tissue area.

Where [5] appears, read: 3 mg/kg dose, twice daily, 28 days, H&E NAFLD scoring.

What is called IC50 is the concentration that inhibits the measured activity by half.

Each structure is given as a SMILES string.

On to `CN(C)S(=O)(=O)c1cnc(N2CCC(Oc3ccc(Cl)cc3)CC2)c(-c2ccc3c(c2)CCO3)c1` [Compound 1], for which the IC50 in data set [1] was 115 nM. Further, in data set [2], the Cell viability came to 100%.
`CN(C)S(=O)(=O)c1cnc(N2CCC(Oc3ccc(Cl)cc3)CC2)c(Nc2ccc3c(c2)CCO3)c1` [Compound 2]: the IC50 in data set [1] was 29 nM. This compound returned a Cell viability in data set [2] of 100%.
In the same order, the values of `CN(C)S(=O)(=O)c1cnc(N2CCC(Oc3ccc(Cl)cc3)CC2)c(Nc2ccc3c(c2)OCO3)c1` [Compound 3] are 121 nM and 100%.
The corresponding values for `CCCOc1ccc(Nc2cc(S(=O)(=O)N(C)C)cnc2N2CCN(Cc3ccc(Cl)cc3)CC2)cc1` [Compound 4] are 300 nM and 100%.
On to `CN(C)S(=O)(=O)c1cnc(N2CCC(Oc3ccc(Cl)cc3)CC2)c(Oc2ccc3c(c2)CCO3)c1` [Compound 5], for which the IC50 in data set [1] came to 28 nM. This compound also registered a Cell viability in data set [2] of 100%. Also, the “NAFLD activity score (NAS)” value in data set [3] (3 mg/kg dose, twice daily, 28 days, FIG. 1) is listed as “significant reduced NAS score than disease controls”. Moreover, in data set [3] (setting [5]), the hepatic ballooning entry is “trend towards decreased”, the “lobular inflammation in the liver” value is listed as “significantly reduced” and the “steatosis in the liver” value is “trend towards decreased”. In addition, the “hepatomegaly and liver to body weight ratio” value in data set [3] was “did not show any hepatomegaly and increase in liver to body weight ratio”. Further, the “Serum AST levels” value in data set [3] (after 28 days of treatment, FIG. 2) is given as “significantly reduced”.
In the case of `CN(C)S(=O)(=O)c1cnc(N2CCC(Oc3ccc(Cl)cc3)CC2)c(Nc2ccc3oc(CO)cc3c2)c1` [Compound 6], the IC50 in data set [1] amounted to 13 nM. In addition, in data set [2], the Cell viability is 100%.
The corresponding values for `CCOc1ccc(Oc2cc(S(=O)(=O)N(C)C)cnc2N2CCC(Oc3ccc(C(N)=O)nc3)CC2)cc1` [Compound 8] are 337 nM and 100%.
In the same order, the values of `CN(C)S(=O)(=O)c1cnc(N2CCC(Oc3ccc(C(N)=O)nc3)CC2)c(Oc2ccc(OC(F)(F)F)cc2)c1` [Compound 9] are 531 nM and 100%.
The corresponding values for `Cc1ccc(Oc2cc(S(=O)(=O)N(C)C)cnc2N2CCC(Oc3ccc(C(N)=O)nc3)CC2)cc1` [Compound 10] are 410 nM and 100%.
Regarding `CCOc1ccc(Oc2cc(S(C)(=O)=O)cnc2N2CCC(Oc3ccc(Cl)cc3)CC2)cc1` [Compound 11], the IC50 in data set [1] was found to be 753 nM. The Cell viability in data set [2] turned out to be 100%.
The corresponding values for `CN(C)S(=O)(=O)c1cnc(N2CCC(Oc3ccc(C(N)=O)nc3)CC2)c(Oc2ccc3c(c2)CCO3)c1` [Compound 12] are 2300 nM and 100%.
`CSc1ccc(C(=O)/C=C/c2cc(C)c(OC(C)(C)C(=O)O)c(C)c2)cc1` [Elafibranor, reference compound]: the “hepatomegaly and liver to body weight ratio” value in data set [3] is “hepatomegaly and increase in liver to body weight ratio”.
For `Cc1ccc(=O)n(-c2ccccc2)c1` [Pirfenidone, reference compound], in data set [4] (compared with Bleomycin control, Compound 7 p>0.05, Pirfenidone p<0.05, FIGS. 5A and 5B), the BALF macrophage counts entry is reported as “reduced”. In data set [4] (lung, Masson's trichrome, in comparison with Bleomycin control, p<0.05, FIG. 6B), the “% CPA (Collagen Proportion Area)” value was “significant reduction”. Also, in data set [4] (lung, in comparison with Bleomycin control, p<0.05, FIG. 6A), the “fibrosis score (H&E Ashcroft Score)” value is given as “significant reduction”.
